ChEMBL document CHEMBL5528001, “Synthetic product-based approach toward potential antileishmanial drug development” (Eur J Med Chem, 2024)
In brackets after ≈: the same amount, converted by molar mass.

Tests used:
[1] = test system: Leishmania major; assay: Antileishmanial activity against Leishmania major promastigotes assessed as reduction in parasite viability measured after 72 hrs by Giemsa-staining based microscopic analysis; type: functional, organism-based
[2] = test system: Leishmania major; assay: Antileishmanial activity against Leishmania major amastigotes assessed as reduction in parasite viability measured for 72 hrs by Giemsa-staining based microscopic analysis; type: functional, organism-based
[3] = test system: Leishmania aethiopica; assay: Antileishmanial activity against Leishmania aethiopica amastigotes assessed as inhibition of parasite growth measured after 24 hrs by Alamar blue based analysis; type: functional, organism-based
[4] = test system: Leishmania amazonensis; assay: Antileishmanial activity against Leishmania amazonensis IFLA/BR/1967/PH8 amastigotes infected in murine peritoneal macrophages incubated for 24 hrs by Giemsa staining based analysis; type: functional, organism-based; settings: IFLA/BR/1967/PH8, 24 h
[5] = test system: Leishmania infantum; assay: Antileishmanial activity against Leishmania infantum MHOM/BR/1972/BH46 amastigotes assessed as reduction in cell viability measured for 48 hrs by PI staining based flow cytometry analysis; type: functional, organism-based; settings: MHOM/BR/1972/BH46, 48 h
[6] = test system: Leishmania infantum; assay: Antileishmanial activity against Leishmania infantum MHOM/BR/1972/BH46 promastigotes assessed as reduction in parasite viability measured for 48 hrs by PI staining based flow cytometry analysis; type: functional, organism-based; settings: MHOM/BR/1972/BH46, 48 h
[7] = test system: Leishmania donovani; assay: Antileishmanial activity against Leishmania donovani amastigotes; type: functional, organism-based
[8] = test system: Leishmania donovani; assay: Antileishmanial activity against Leishmania donovani amastigotes assessed as parasite growth inhibition incubated for 72 hrs by MTS assay; type: functional, organism-based
[9] = Cytotoxicity against HEK293 cells assessed as reduction in cell viability incubated for 6 days by CellTiter-Glo luminescent cell viability assay; type: toxicity, cell-based; settings: human
[10] = test system: HepG2; assay: Antiproliferative activity against human HepG2 cells assessed as reduction in cell viability incubated for 72 hrs by MTT assay; type: functional, cell-based; settings: HepG2, 72 h
[11] = test system: Leishmania major; assay: Antileishmanial activity against Leishmania major amastigotes assessed as reduction in parasite growth incubated for 48 hrs by resazurin dye based analysis; type: functional, organism-based
[12] = test system: Leishmania major; assay: Antileishmanial activity against Leishmania major assessed as reduction in parasite growth; type: functional, organism-based
[13] = test system: J774.A1; assay: Cytotoxicity against mouse J774.A1 cells assessed as reduction in cell viability incubated for 72 hrs by MTT assay; type: functional
[14] = test system: Leishmania infantum; assay: Antileishmanial activity against Leishmania infantum promastigote assessed as reduction in parasite growth after 72 hrs by MTT assay; type: functional, organism-based
[15] = test system: Leishmania donovani; assay: Antileishmanial activity against Leishmania donovani amastigotes infected in human THP-1 cells assessed as inhibition of parasite infection incubated for 72 hrs by DAPI staining based assay; type: functional, organism-based; settings: THP-1, 72 h
[16] = test system: Leishmania donovani; assay: Antileishmanial activity against Leishmania donovani amastigotes infected in J774.A1 macrophage assessed as inhibition of parasite growth by luciferase assay; type: functional, organism-based
[17] = test system: Leishmania braziliensis; assay: Antileishmanial activity against Leishmania braziliensis MHOM/BR/75/M2903 strain promastigotes assessed as reduction in cell viability incubated for 48 hrs by MTT assay; type: functional, organism-based; settings: MHOM/BR/75/M2903, 48 h
[18] = test system: Leishmania donovani; assay: Antileishmanial activity against Leishmania donovani promastigotes assessed as inhibition of parasite growth; type: functional, organism-based
[19] = test system: Leishmania amazonensis; assay: Antileishmanial activity against Leishmania amazonensis promastigotes assessed as inhibition of parasite growth; type: functional; set-up: scale not given: the % may be the effect or the level left
[20] = test system: Leishmania mexicana; assay: Antileishmanial activity against Leishmania mexicana promastigotes; type: functional, organism-based
[21] = test system: Leishmania donovani; assay: Antileishmanial activity against Leishmania donovani promastigotes assessed as parasite growth inhibition incubated for 72 hrs by alamar blue staining based assay; type: functional, organism-based
[22] = test system: Leishmania donovani; assay: Antileishmanial activity against Leishmania donovani MHOM/SD/62/1S-CL2D promastigotes assessed as reduction in parasite growth incubated for 24 hrs by resazurin dye based analysis; type: functional, organism-based
[23] = test system: Leishmania donovani; assay: Antileishmanial activity against Leishmania donovani MHOM/SD/62/1S assessed as inhibition of parasite growth by resazurin/alamar blue fluorometric assay; type: functional, organism-based
[24] = test system: Leishmania donovani; assay: Antileishmanial activity against Leishmania donovani 9515 promastigotes assessed as inhibition of parasite growth incubated for 48 hrs by resazurin dye based assay; type: functional, organism-based; settings: Leishmania donovani, 9515, 48 h
[25] = test system: Leishmania major; assay: Antileishmanial activity against Leishmania major IR-173 promastigotes assessed as inhibition of parasite growth incubated for 48 hrs by resazurin dye based assay; type: functional, organism-based; settings: IR-173, 48 h
[26] = test system: Leishmania infantum; assay: Antileishmanial activity against Leishmania infantum MON-1 promastigotes assessed as reduction in parasite viability measured after 48 hrs by MTT assay; type: functional, organism-based; settings: MON-1, 48 h

CCOC(=O)C1=C(C)NC(C)=C(C(=O)OCC)C1c1cccc(Cl)c1
EC50 [1]: 10.5 µM | EC50 [2]: 2.2 µM

c1ccc(-c2nn(-c3ccccc3)cc2C2=NCCS2)cc1
IC50 [3]: 1.02 µg/mL (≈ 3.34 µM)

NC(=O)[C@@H]1CSC(c2cn(-c3ccccc3)nc2-c2ccccc2)N1 (some centres undefined)
IC50 [3]: 1.02 µg/mL (≈ 2.91 µM)

COC(=O)C1=C(C)NC(C)=C(C(=O)OC)C1c1cccc(Cl)c1
EC50 [2]: 5.4 µM

O=C(CC[Se]c1ccnc2cc(Cl)ccc12)Nc1ccc([N+](=O)[O-])cc1
IC50 [4]: 5.67 µM

CCCc1cc(OC)c2oc(=O)c(C(=O)c3ccc([N+](=O)[O-])cc3)cc2c1
IC50 [5]: 6.8 µM | IC50 [6]: 12 µM

O=C(C[Se]CC(=O)Nc1ccc([N+](=O)[O-])cc1)Nc1ccc([N+](=O)[O-])cc1
IC50 [4]: 10.8 µM

C#CCN1C(=O)CN(/N=C/c2ccc([N+](=O)[O-])o2)C1=O
IC50 [7]: 0.39 µM | IC50 [8]: 3.03 µM | IC50 at 6 days [9]: 88.5 µM

Cc1nc2c3ccccc3c3ccccc3n2c1C(=O)NCc1cn(-c2cccc([N+](=O)[O-])c2)nn1
EC50 [10]: < 30 µM

Cc1cc(C)cc(-n2cc(CNC(=O)c3c(C)nc4c5ccccc5c5ccccc5n34)nn2)c1
EC50 [10]: < 30 µM

CC(C)(C)c1ccc(COc2ccc(C(=O)N/N=C\c3ccc([N+](=O)[O-])o3)cc2)cc1
IC50 [11]: 0.19 µM

Cc1nc2ccc(Cl)cn2c1C(=O)N1CCN(Cc2cn(-c3ccc(Cl)cc3)nn2)CC1
IC50 [12]: 15.1 µM

CC1(C)CC(=O)c2cc(CNC(=O)C/C=C/c3ccccc3)ccc2S1
CC50 [13]: 31.6 µM | IC50 [14]: 10.5 µM

CCc1ccc(-n2cc(CN3CCN(C(=O)c4c(C)nc5ccc(Cl)cn45)CC3)nn2)cc1
IC50 [12]: 15.1 µM

O=C(c1ccccc1)N1N=C(c2ccccc2)CC1c1cn(-c2ccc(Cl)cc2)nc1-c1ccccc1 (centres undefined)
IC50 [15]: 0.87 µM | IC50 [16]: 0.08 µM

CC(C)=CC1=C(OC(=O)CCc2cn(-c3cccc(Cl)c3)nn2)C(=O)c2ccccc2C1=O
IC50 [17]: 16.7 µM

Cc1cc(O)c(C(=O)Nc2ccccc2)c(=O)n1Cc1ccc(Cl)cc1
IC50 [18]: 55 µM

CCCn1c(C)cc(O)c(C(=O)Nc2ccc(Br)cc2)c1=O
IC50 [18]: 55 µM

O=C1NC(=S)N2CCCC12 (centres undefined)
Activity [19]: 20%

COc1cc(/C=C/C(=O)c2ccccc2Cl)ccc1OCC=C(C)C
IC50 [20]: 8.04 µM

Cc1cc(O)c(C(=O)Nc2ccc(Br)cc2)c(=O)n1C1CC1
IC50 [18]: 55 µM

COc1cc(C(=O)/C=C/c2ccc([N+](=O)[O-])cc2)ccc1OCC=C(C)C
IC50 [20]: 8.22 µM

CN(C)CCCNC(=O)c1ccc2cc(Cl)ccc2n1
IC50 [21]: 5.85 µM

CCCCCCCCCCCCCCCC(=O)CC(=O)N1CCC[C@@H]1COP(=O)([O-])OCC[N+](C)(C)C
IC50 [22]: 28.3 µM

Cc1nc2ccc(Cl)cn2c1C(=O)N1CCN(Cc2cn(-c3ccc(Br)cc3)nn2)CC1
IC50 [12]: 15.1 µM

Cc1cc(O)c(C(=O)Nc2ccccc2)c(=O)n1Cc1cccc(Cl)c1Cl
IC50 [18]: 55 µM

O=C(N/N=C/c1ccc([N+](=O)[O-])o1)c1ccc(OCc2ccc(F)cc2)cc1
IC50 [23]: 0.23 µM | IC50 [24]: 0.86 µM | IC50 [25]: 0.28 µM

CCOC(=O)c1cc2c([nH]c3ccccc32)c(-c2ccccn2)n1
EC50 [26]: > 29.8 µM

COc1ccc2nc(C(=O)NCCCN(C)C)ccc2c1
IC50 [21]: 8 µM

CC1(C)CC(=O)c2cc(CNC(=O)CCCCCCCCBr)ccc2S1
CC50 [13]: 58 µM | IC50 [14]: 7.2 µM
